The record followed here is patent US12097212B2, “Use of cationic steroidal antimicrobial compounds to deactivate coronavirus” (Brigham Young University, priority 2020, dated 2024).

Read-outs that look alike come from different tables or passages of the source. Marks after values point to notes of the source that are not given here.

The experiment concerns SARS-CoV-2. The class given is cell-based. Conditions: 30-minute contact time at 22 ± 2° C.; for Virus (CCID50/0.1 mL): average of 3 replicates ± standard deviation; for LRV (log reduction value): compared to the virus control.

Regarding `CCCCCCCCCCCCNCCC[C@@H](C)[C@H]1CC[C@H]2[C@@H]3[C@H](OCCCN)C[C@@H]4C[C@H](OCCCN)CC[C@]4(C)[C@H]3C[C@H](OCCCN)[C@]12C.Cl.Cl.Cl.Cl` [CSA-131HC1], the “Virus (CCID50/0.1 mL)” value was 4.1 ± 0.40 CCID50/0.1 mL (1 μg/mL), 4.1 ± 0.17 CCID50/0.1 mL (5 μg/mL), 1.2 ± 0.54 CCID50/0.1 mL (25 μg/mL) and <1.7**** CCID50/0.1 mL (100 μg/mL). In addition, the “LRV (log reduction value)” value is given as 0.3 log10 (1 μg/mL), 0.3 log10 (5 μg/mL), 3.2 log10 (25 μg/mL) and over 2.7 log10 (100 μg/mL).

In the case of `CCO` [Ethanol, reference compound], for the setting “35%”, the “Virus (CCID50/0.1 mL)” value came out at 0.8 ± 0.23 CCID50/0.1 mL and the “LRV (log reduction value)” value is given as 3.6 log10.

Regarding `CCCCCCCCOC(=O)CC[C@@H](C)[C@H]1CC[C@H]2[C@@H]3[C@H](OC(=O)CCN)C[C@@H]4C[C@H](OC(=O)CCN)CC[C@]4(C)[C@H]3C[C@H](OC(=O)CCN)[C@]12C` [CSA-44HC1], the “Virus (CCID50/0.1 mL)” value (1 μg/mL) is listed as 4.4 ± 0.12 CCID50/0.1 mL, the “Virus (CCID50/0.1 mL)” value (5 μg/mL) stood at 3.9 ± 0.17 CCID50/0.1 mL, the “Virus (CCID50/0.1 mL)” value (25 μg/mL) is reported as 0.8 ± 0.19 CCID50/0.1 mL and the “Virus (CCID50/0.1 mL)” value (100 μg/mL) amounted to 1.2 ± 0.94 CCID50/0.1 mL. Besides, the “LRV (log reduction value)” value worked out at 0 log10 (1 μg/mL), 0.5 log10 (5 μg/mL), 3.6 log10 (25 μg/mL) and 3.2 log10 (100 μg/mL).
